Source: patent publication US5922871A, “Terephthalamide derivatives” (Dongwha Pharmaceutical Ind. Co., Ltd., priority 1997, dated 1999)

How the values were obtained:
[1] = target: T1, RNase H of HBV polymerase (HBV-RNase H) (Hepatitis B virus ayw/France/Tiollais/1979, UniProt P03156); assay: inhibitory effects against RNase H activity of HBV polymerase; assay type: biochemical; settings: read-out: Inhibitory effect of HBV-RNase H; for inhibition at 0.1 µg/mL: 0.1 μg/ml; for inhibition at 1 µg/mL: 1 μg/ml
T1 construct: amylose/maltose step implies MBP fusion
T1 sequence (P03156 680-832): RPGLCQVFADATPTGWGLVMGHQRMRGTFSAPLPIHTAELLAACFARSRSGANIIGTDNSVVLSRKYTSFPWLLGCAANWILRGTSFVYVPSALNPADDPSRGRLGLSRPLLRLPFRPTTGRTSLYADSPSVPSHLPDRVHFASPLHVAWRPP
Description: Experiment 2: The inhibitory effects against RNase H activity of HBV polymerase.
1) Expression of the RNase H domain derived from human HBV polymerase
E.coli NM 522 was transformed by the expression vector pMRH respectively and the transformants were cultured in LB medium at 37° C., overnight. These growing cultures were diluted 1:100, inoculated into a glucose rich medium and incubated until OD600 reached 0.5. Then IPTG (isopropylthiogalactoside) was added into the medium of which the fine concentration was 0.5 mM. The above growing cultures were incubated again at 20° C. for 16 hours and the RNase H domain was expressed.
The above cultured broth was centrifuged for 10 minutes at 3,000 rpm and the cell pellet was washed with 10 ml of TNE column buffer (10 mN Tris-Cl, pH 8.0, 200 mM NaCl, 1 mM EDTA), and resuspended in 10 ml of TNE column buffer. The cells were freezed and thawed 4 times repeatedly, and then disrupted by sonication for 10 seconds 3 times. The crude extract prepared in the above process was centrifuged for 30 minutes at 13,000 rpm, 4° C. and the supernatant was separated. The above process was repeated 2 times and then the supernatant passed the amylose resin. The resin was washed by using column buffer with 50 times of resin volume, and the RNase H domain was eluted by using buffer containing 10 mM maltose.
In addition, the RNase H domain produced from the expression vector pMRH was purified by using histidine tag affinity column, because RNase H has a histidine tag at the C-terminus. The resin (Ni-NTA, QIAGEN) used in the histidine tag affinity column was activated by using sonication buffer (50 mM sodium phosphate, pH 8.0, 300 mM sodium chloride) and 4~5 ml of the activated resin was charged in the glass tube whose diameter was about 1 cm. The protein sample obtained from above description passed the resin at the 0.1 ml/ min flow rate and the column was washed by using washing buffer with the 100~200 times volume of protein sample (50 mM sodium phosphate, pH 6.0, 300 mM sodium chloride, 10% glycerol). The recombinant protein was eluted by washing the column with concentration gradient of 0.01~0.5 M imidazole.
As a result, the active RNase H domain was separated from the histidine tag affinity column at 30 mM concentration of imidazole. The purified RNase H domain was mixed with 50% glycerol for storage at -20° C. after the removal of imidazole from it and employed fol the screening of HBV inhibitors.
2) Preparation of the substrate of the RNase H enzyme
In order to identify the RNase H activity, RNA/DNA complex which can be used as a substrate of the RNase H enzyme was prepared by performing in vitro transcription with […].
3) Screening of active inhibitors against RNase H
The RNase H activity was measured by using recombinant RNase H enzyme and radiolabled RNA/DNA hybrid. In order to measure the RNase H activity, 1 μg of RNase H enzyme and test compound were mixed with buffer solution containing 40 mM Tris-Cl (pH 8.0), 4 mM magnesium chloride, 40 mM potassium chloride and 2 mM DTT. The mixture was pretreated on ice for 10 minutes. After pretreatment is completed, RNA/DNA hybrid was added to incubate at 37° C. for 3 hours. After the reaction was stopped, 7.5 M ammonium acetate in a volume of 1/2 and ethanol in a 3-fold volume were added. The above reaction mixture was incubated at -20° C. for more than 2 hours and centrifuged for 15 minutes at 4° C., 13,000 rpm. The supernatant was obtained and the radioactive signal of supernatant was measured by scintillation counter.
As a control, water was added instead of test compound and the inhibitory activity was calculated to compare with the control, when the radioactivity intensity on each test compound, was obtained.

[2] = target: T2, HBV polymerase reverse transcriptase (HBV-RT) (Hepatitis B virus genotype D subtype ayw, UniProt P03156); assay: inhibitory activity against HBV polymerase in vitro (reverse transcriptase activity); assay type: biochemical; settings: read-out: Inhibitory effect of HBV-RT; for inhibition at 0.1 µg/mL: 0.1 μg/ml; for inhibition at 1 µg/mL: 1 μg/ml
T2 construct: made in house; host or cells: E. coli
T2 sequence (P03156 whole entry): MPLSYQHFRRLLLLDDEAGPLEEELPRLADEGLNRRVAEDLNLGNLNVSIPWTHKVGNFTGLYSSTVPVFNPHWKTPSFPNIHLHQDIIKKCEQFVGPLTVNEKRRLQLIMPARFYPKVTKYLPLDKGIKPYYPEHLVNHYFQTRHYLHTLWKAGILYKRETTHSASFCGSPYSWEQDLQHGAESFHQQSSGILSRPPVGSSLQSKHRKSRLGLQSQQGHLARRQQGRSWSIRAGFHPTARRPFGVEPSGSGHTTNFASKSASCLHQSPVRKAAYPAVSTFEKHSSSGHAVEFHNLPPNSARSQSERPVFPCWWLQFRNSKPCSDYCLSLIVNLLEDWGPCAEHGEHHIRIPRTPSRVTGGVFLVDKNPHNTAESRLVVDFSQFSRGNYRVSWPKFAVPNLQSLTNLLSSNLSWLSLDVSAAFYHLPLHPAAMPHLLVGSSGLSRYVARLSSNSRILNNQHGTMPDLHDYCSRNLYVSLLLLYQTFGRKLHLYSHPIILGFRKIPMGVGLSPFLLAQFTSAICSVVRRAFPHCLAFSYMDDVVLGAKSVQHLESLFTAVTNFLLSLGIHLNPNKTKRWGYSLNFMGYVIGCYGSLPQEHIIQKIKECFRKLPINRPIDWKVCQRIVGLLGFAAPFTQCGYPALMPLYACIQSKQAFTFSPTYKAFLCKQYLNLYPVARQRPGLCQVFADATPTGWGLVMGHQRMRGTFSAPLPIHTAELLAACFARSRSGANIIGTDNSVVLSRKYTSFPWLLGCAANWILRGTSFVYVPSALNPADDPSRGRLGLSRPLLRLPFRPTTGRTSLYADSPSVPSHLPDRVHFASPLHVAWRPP
Excerpt: Experiment 1: The inhibitory activity against HBV polymerase in vitro.
Recently, the inventors of the present invention have produced a recombinant HBV polymerase that is expressed from E.coli transformant, measured its enzyme activity and filed patent applications thereof [Korean Patent Application Nos. 94-3918, 96-33998 and 96-63255].
The inventions have established a method of measuring the reverse transcriptase activity of HBV polymerase in vitro. The fundamental principle is the same as the ELISA method, and after reacting the substrate with biotin- and DIG-modified nucleotide, a method of recognizing the polymerized substrate as anti-DIG antibody with peroxidase was used. […] and 20 μ of test compound were mixed and reacted at 14~30° C. for 18~24 hours. Then, the inhibitory effect of test compound against reverse trascriptase activity in the HBV polymerase was examined, compared with the results of control tests without the test compound.

[3] = target: T3, HIV reverse transcriptase (HIV-RT) (Human immunodeficiency virus type 1 group M subtype B, UniProt P04585); assay: in vitro inhibition test against HIV reverse transcriptase; assay type: biochemical, HIV (AIDS virus); settings: read-out: Inhibitory effect of HIV-RT; for inhibition at 0.1 µg/mL: 0.1 μg/ml; for inhibition at 1 µg/mL: 1 μg/ml
T3 construct: purchased Boehringer Mannheim
Description: Experiment 3: The in vitro inhibition test against HIV reverse transcriptase
The inhibitory activity in vitro was measured using a non-radioactive reverse transcriptase assay Kit (Boehringer Mannheim).
At first, 20 μl(40 ng) HIV-RT was added to the wells coated with streptavidin and with the addition of 20 μl, reaction mixture containing template/primer hybrid poly(A)/oligo(dT)15 and DIG-(digoxigenin)-dUTP, biotin-dUTP and TTP, 20 μl test compound was added and reacted at 37° C. for 1 hour. The control without test compound was used for the comparison of related activity. Since DNA containing nucleotide labeled with digoxigenin and biotine was prepared by the action of HIV-RT, it was combined with streptavidin coated at the bottom of the wells. After the reaction was completed, remaining impurities were removed by washing each well with 20 μl buffer solution (pH 7.0) for 30 seconds 5 times and with the addition of 200 μl anti-DIG-POD antibody, the mixture was reacted at 37° C. for 1 hour. For the removal of remaining impurities again, the reacting solution was washed with a buffer solution and with the addition of 200μl ABTS™ each, a substrate of POD(peroxidase), the solution was reacted at room temperature for 30 minutes. The absorbance was read by ELISA reader at 405 nm for the assay of reverse transcriptase activity and its inhibition activity.

Row | SMILES | inhibition at 0.1 µg/mL [1] [%] | inhibition at 1 µg/mL [1] [%] | inhibition at 0.1 µg/mL [2] [%] | inhibition at 1 µg/mL [2] [%] | inhibition at 0.1 µg/mL [3] [%] | inhibition at 1 µg/mL [3] [%]
1 | CC(C)Nc1cccnc1N1CCN(C(=O)c2ccc(C(=O)NCCO)cc2)CC1 [Compound No. 1, 1-[N-(2-Hydroxyethyl)carbamoyl]-4-[1-[3-(isopropylamino)-2-pyridyl]piperazin-4-yl-carbonyl]benzene] | 11 | 80 | 53 | 55 | 41 | 62
2 | CCN(CCO)C(=O)c1ccc(C(=O)N2CCN(c3ncccc3NC(C)C)CC2)cc1 [Compound No. 6, 1-[N-Ethyl-N-(2-hydroxyethyl)carbamoyl]-4-[1-[3-(isopropylamino)-2-pyridyl]piperazin-4-yl-carbonyl]benzene] | 55 | 83 | 30 | 51 |  | 
3 | CC(C)Nc1cccnc1N1CCN(C(=O)c2ccc(C(=O)N3CCNCC3)cc2)CC1 [Compound No. 19, 1-[4-[1-[3-(Isopropylamino)-2-pyridyl]piperazin-4-yl-carbonyl]benzoyl]piperazine] | 38 | 53 |  |  | 43 | 52
4 | CC(C)Nc1cccnc1N1CCN(C(=O)c2ccc(C(=O)N3CCN(CCCO)CC3)cc2)CC1 [Compound No. 27, 4-(3-Hydroxypropyl)-1-[4-[1-[3-(isopropylam-ino)-2-pyridyl]piperazin-4-yl-carbonyl]benzoyl]piperazine] | 73 | 81 |  |  | 40 | 68
5 | CC(C)Nc1cccnc1N1CCN(C(=O)c2ccc(C(=O)N3CCN(CC(O)CO)CC3)cc2)CC1 (stereo not shown) [Compound No. 31, 4-(2,3-Dihydroxypropyl)-1-[4-[1-[3-(isopropylamino)-2-pyridyl]piperazin-4-yl-carbonyl]benzoyl]piperazine] | 80 | 85 | 30 | 52 |  | 
6 | CC(C)Nc1cccnc1N1CCN(C(=O)c2ccc(C(=O)N[C@H](CO)C(C)C)cc2)CC1 [Compound No. 38, 1-[N-[(1S)-2-Hydroxy-1-(1-methylethyl)ethyl]carbamoyl]-4-[1-[3-(isopropylamino)-2-pyridyl]piperazin-4-yl-carbonyl]benzene] |  |  | 50 | 67 | 20 | 78
7 | CC(C)Nc1cccnc1N1CCN(C(=O)c2ccc(C(=O)N[C@@H](CO)C(C)C)cc2)CC1 [Compound No. 39, 1-[N-[(1R)-2-Hydroxy-1-(1-methylethyl)ethyl]carbamoyl]-4-[1-[3-(isopropylamino)-2-pyridyl]piperazin-4-yl-carbonyl]benzene] |  |  | 30 | 78 | 25 | 75
8 | CC(C)Nc1cccnc1N1CCN(C(=O)c2ccc(C(=O)N[C@H](CO)c3ccccc3)cc2)CC1 [Compound No. 48, 1-[N-[(1S)-2-Hydroxy-1-phenylethyl]carbamoyl]-4-[1-[3-(isopropylamino)-2-pyridyl]piperazin-4-yl-carbonyl]benzene] |  |  | 61 | 80 | 46 | 51
9 | COCCNC(=O)c1ccc(C(=O)N2CCN(c3ncccc3NC(C)C)CC2)cc1 [Compound No. 61, 4-[1-[3-(Isopropylamino)-2-pyridyl]piperazin-4-yl-carbonyl]-1-[N-(2-methoxyethyl)carbamoyl]benzene] |  |  | 33 | 81 | 32 | 65
10 | COCCN(CCOC)C(=O)c1ccc(C(=O)N2CCN(c3ncccc3NC(C)C)CC2)cc1 [Compound No. 62, 1-[N,N-Bis(2-methoxyethyl)carbamoyl]-4-[1-[3-(isopropylamino)-2-pyridyl]piperazin-4-yl-carbonyl]benzene] |  |  | 53 | 60 | 41 | 58
11 | CC(C)Nc1cccnc1N1CCN(C(=O)c2ccc(C(=O)N3CCOCC3)cc2)CC1 [Compound No. 76, 4-[1-[3-(Isopropylamino)-2-pyridyl]piperazin-4-yl-carbonyl]-1-(morpholin-4-yl-carbonyl)benzene] |  |  | 49 | 79 | 43 | 52
12 | CC(C)Nc1cccnc1N1CCN(C(=O)c2ccc(C(=O)NCCN3CCOCC3)cc2)CC1 [Compound No. 79, 4-[1-[3-(Isopropylamino)-2-pyridyl]piperazin-4-yl-carbonyl]-1-[N-[2-(morpholin-4-yl)ethyl]carbamoyl]benzene] |  |  | 65 | 72 | 59 | 71
13 | CC(C)Nc1cccnc1N1CCN(C(=O)c2ccc(C(=O)NCCCN3CCOCC3)cc2)CC1 [Compound No. 80, 4-[1-[3-(Isopropylamino)-2-pyridyl]piperazin-4-yl-carbonyl]-1-[N-[3-(morpholin-4-yl)propyl]carbamoyl]benzene] |  |  | 40 | 66 | 43 | 56
14 | CC(C)Nc1cccnc1N1CCN(C(=O)c2ccc(C(=O)NCCN(C)C)cc2)CC1 [Compound No. 83, 1-[N-[2-(Dimethylamino)ethyl]carbamoyl]-4-[1-[3-(isopropylamino)-2-pyridyl]piperazin-4-yl-carbonyl]benzene] |  |  | 62 | 65 | 62 | 65
